Measured values taken from patent US12565505B2, “mTORC modulators and uses thereof” (Aeovian Pharmaceuticals, Inc., priority 2019, dated 2026).

Legend:
[1] = target: T1, mTORC1 (Homo sapiens, UniProt P42345+P62942); test: Inhibition assay for mTORC1: phosphorylation of pS6K at Thr389, AlphaLISA SureFire in PC3 cells; type: cell-based; settings: PC3 cells, 24 hours treatment, pS6K Thr389; analogs substituted at C40 and C16 (C16 diastereomer mixtures not isolated); read-out: pIC50 mTORC1 (converted)
T1 construct: endogenous in cells; host or cells: PC3 cells (human prostate adenocarcinoma)
How it was run: (§1)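 Human prostate adenocarcinoma PC3 cells treated with compounds for 24 h. AlphaLISA SureFire read-out of pS6K Thr389 for mTORC1 and pAkt Ser473 for mTORC2, from which IC50s were derived.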

[2] = target: T2, mTORC2 (Homo sapiens, UniProt P42345+P62942); test: Inhibition assay for mTORC2: phosphorylation of pAkt at Ser473, AlphaLISA SureFire in PC3 cells; type: cell-based; settings: PC3 cells, 24 hours treatment, analogs substituted at C40 and C16 (C16 diastereomer mixtures not isolated), read-out: pIC50 mTORC2 (converted)
T2 construct: endogenous in cells; host or cells: PC3 cells (human prostate adenocarcinoma)
How it was run: as §1

IC50 [1] [µM]	IC50 [2] [µM]	Compound
< 0.000316	> 10	CO[C@@H]1C[C@H](C[C@@H](C)[C@@H]2CC(=O)[C@H](C)/C=C(\C)[C@@H](O)[C@@H](OC)C(=O)[C@H](C)C[C@H](C)/C=C/C=C/C=C(\C)C(OCCO)C[C@@H]3CC[C@@H](C)[C@@](O)(O3)C(=O)C(=O)N3CCCCC3C(=O)O2)CC[C@H]1OCCO (stereo partly shown) [Compound 9]
< 0.000316	> 10	CO[C@@H]1C[C@H](C[C@@H](C)[C@@H]2CC(=O)[C@H](C)/C=C(\C)[C@@H](O)[C@@H](OC)C(=O)[C@H](C)C[C@H](C)/C=C/C=C/C=C(\C)C(OCCO)C[C@@H]3CC[C@@H](C)[C@@](O)(O3)C(=O)C(=O)N3CCCCC3C(=O)O2)CC[C@H]1OCCCO (stereo partly shown) [Compound 10]
